Data taken from ChEMBL document CHEMBL6115023, “Design and biochemical evaluation of 2-cyclopropyl-thioureidobenzamide (CP-TBA) derivatives as potent HBV capsid assembly modulators targeting a novel binding site” (Eur J Med Chem, 2025).
Calls of active or inactive are those of the source. The rule behind the calls is not given here.

What was measured:
[1] = Selectivity index, ratio of CC50 for human HepAD38 cells to IC50 for antiviral activity against HBV gene expressed in human HepAD38 cells assessed as inhibition of HBV DNA replication; assay type: toxicity, cell-based; details: read-out: Selectivity Index
Hepatitis B virus [2] = assay: Antiviral activity against HBV gene expressed in human HePAD38 cells assessed as inhibition of HBV DNA replication by quantitative PCR analysis; assay type: functional, organism-based
[3] = Cytotoxicity against human HepAD38 cells measured after 72 hrs by CCK-8 assay; assay type: toxicity, cell-based
[4] = Stability in human plasma assessed as compound remaining measured after 10 mins by LC-MS/MS analysis; assay type: ADME, cell-free; details: read-out: Stability
[5] = Clearance in Sprague-Dawley rat at 2 mg/kg, iv measured upto 24 hrs by LC-MS/MS analysis; assay type: ADME, organism-based; details: in vivo
[6] = Metabolic stability in human liver microsomes assessed as intrinsic clearance measured per mg of microsomal protein upto 60 mins by LC-MS/MS analysis; assay type: ADME, Microsome; details: read-out: CLH
[7] = Half life in Sprague-Dawley rat at 2 mg/kg, iv measured upto 24 hrs by LC-MS/MS analysis; assay type: ADME, organism-based; details: in vivo
[8] = Volume of distribution at steady state in Sprague-Dawley rat at 2 mg/kg, iv measured upto 24 hrs by LC-MS/MS analysis; assay type: ADME, organism-based; details: in vivo, read-out: Vdss
[9] = Metabolic stability in human liver microsomes assessed as half life by LC-MS/MS analysis; assay type: ADME, Microsome
[10] = MRT (0 to infinity) in Sprague-Dawley rat at 2 mg/kg, iv measured upto 24 hrs by LC-MS/MS analysis; assay type: ADME, organism-based; details: in vivo
[11] = MRT (0 to t) in Sprague-Dawley rat at 2 mg/kg, iv measured upto 24 hrs by LC-MS/MS analysis; assay type: ADME, organism-based; details: in vivo
[12] = Cytotoxicity against human HLCZ01 cells assessed as cell viability measured after 72 hrs by CCK-8 assay; assay type: toxicity, cell-based
[13] = Tmax in Sprague-Dawley rat at 20 mg/kg, po measured upto 24 hrs by LC-MS/MS analysis; assay type: ADME, organism-based; details: in vivo
[14] = Lipophilic-hydrophilic partition coefficient logP of compound; assay type: physicochemical; details: octanol/water
[15] = Stability in human plasma assessed as compound remaining measured after 120 mins by LC-MS/MS analysis; assay type: ADME, cell-free; details: read-out: Stability
[16] = Oral bioavailability in Sprague-Dawley rat at 2 mg/kg, iv measured upto 24 hrs by LC-MS/MS analysis; assay type: ADME, organism-based; details: in vivo
[17] = Metabolic stability in human liver microsomes assessed as compound remaining after 60 mins in absence of NADPH (NCF) by LC-MS/MS analysis; assay type: ADME, Microsome; details: read-out: Stability
[18] = MRT (0 to infinity) in Sprague-Dawley rat at 20 mg/kg, po measured upto 24 hrs by LC-MS/MS analysis; assay type: ADME, organism-based; details: in vivo
Hepatitis B virus [19] = assay: In vivo antiviral activity against HBV infected male C57BL/6J mouse by hydrodynamic injection (HDI) of pAAV-HBV1.2 assessed as decrease in HBV DNA in serum at 5 mg/kg/day, po measured after 20 days by qPCR analysis; assay type: functional, organism-based; details: time 20.0 day
Hepatitis B virus [20] = assay: Antiviral activity against HBV infected in human HLCZ01 cells assessed as inhibition of HBV replication by measuring HBV DNA treated for 6 days by qPCR analysis; assay type: functional, organism-based; details: HLCZ01, 144 h
[21] = Cmax in Sprague-Dawley rat at 20 mg/kg, po measured upto 24 hrs by LC-MS/MS analysis; assay type: ADME, organism-based; details: in vivo
[22] = AUC (0 to t) in Sprague-Dawley rat at 20 mg/kg, po measured upto 24 hrs by LC-MS/MS analysis; assay type: ADME, organism-based; details: in vivo
[23] = AUC (0 to infinitive) in Sprague-Dawley rat at 2 mg/kg, iv measured upto 24 hrs by LC-MS/MS analysis; assay type: ADME, organism-based; details: in vivo
[24] = Stability in human plasma assessed as compound remaining measured after 30 mins by LC-MS/MS analysis; assay type: ADME, cell-free; details: read-out: Stability
[25] = Stability in human plasma assessed as compound remaining measured immediately by LC-MS/MS analysis; assay type: ADME, cell-free; details: read-out: Stability
[26] = Selectivity index, ratio of CC50 for human HLCZ01 cells to IC50 for antiviral activity against HBV infected in human HLCZ01 cells assessed as inhibition of HBV replication by measuring HBV DNA treated for 6 days by qPCR analysis; assay type: toxicity, cell-based; details: time 6 day, read-out: Selectivity Index
Hepatitis B virus [27] = assay: Antiviral activity against HBV infected in human HLCZ01 cells assessed as inhibition of HBV replication by measuring HBsAg treated for 6 days by ELISA; assay type: functional, organism-based; details: time 6.0 day
[28] = AUC (0 to infinity) in Sprague-Dawley rat at 20 mg/kg, po measured upto 24 hrs by LC-MS/MS analysis; assay type: ADME, organism-based; details: in vivo
[29] = Stability in human plasma assessed as half life by LC-MS/MS analysis; assay type: ADME, cell-free
[30] = Stability in human plasma assessed as compound remaining measured after 60 mins by LC-MS/MS analysis; assay type: ADME, cell-free; details: read-out: Stability
[31] = AUC (0 to t) in Sprague-Dawley rat at 2 mg/kg, iv measured upto 24 hrs by LC-MS/MS analysis; assay type: ADME, organism-based; details: in vivo
[32] = MRT (0 to t) in Sprague-Dawley rat at 20 mg/kg, po measured upto 24 hrs by LC-MS/MS analysis; assay type: ADME, organism-based; details: in vivo
[33] = Metabolic stability in human liver microsomes assessed as intrinsic clearance (liver) upto 60 mins by LC-MS/MS analysis; assay type: ADME, Microsome; details: read-out: CLH
[34] = Half life in Sprague-Dawley rat at 20 mg/kg, po measured upto 24 hrs by LC-MS/MS analysis; assay type: ADME, organism-based; details: in vivo
[35] = Metabolic stability in human liver microsomes assessed as compound remaining after 60 mins in presence of NADPH by LC-MS/MS analysis; assay type: ADME, Microsome; details: read-out: Stability

## C=CCNC(=S)Nc1cc(C(=O)Nc2cc(F)c(F)c(F)c2)c(C2CC2)cc1F
[1]
  selectivity ratio: 151
Hepatitis B virus [2]
  EC50: 0.11 µM
[3]
  CC50 at 72 h: 16.7 µM

## CC(C)N(C)C(=S)Nc1cc(C(=O)Nc2cc(F)c(F)c(F)c2)c(C2CC2)cc1F
[4]
  remaining at 10 min: 97.5%
[5]
  clearance: 28.2 mL/min/kg
[6]
  microsomal CLint: 113 µL/min/mg
[7]
  half-life: 1.62 h
[8]
  Vd: 2.1 L/kg
[9]
  half-life: 0.205 h
[10]
  MRT inf: 1.24 h
[11]
  MRT last at 24 h: 1.09 h
[12]
  CC50 at 72 h: 119 µM
[13]
  Tmax: 0.67 h
[14]
  logP: > 5
[15]
  remaining at 2 h: 82.3%
[1]
  selectivity ratio: > 3030
Hepatitis B virus [2]
  EC50: 0.033 µM
[3]
  CC50 at 72 h: > 100 µM
[16]
  bioavailability: 28.9%
[17]
  remaining at 1 h: 99%
[18]
  MRT inf: 4.42 h
Hepatitis B virus [19]
  Activity: Active
Hepatitis B virus [20]
  EC50: 0.012 µM
[21]
  Cmax: 748 ng/mL
[22]
  AUC(0-t) at 24 h: 3440 ng·h/mL
[23]
  AUC(0-inf): 1200 ng·h/mL
[24]
  remaining at 0.5 h: 91.6%
[25]
  remaining at 0 min: 100%
[26]
  selectivity ratio at 144 h: 9920
Hepatitis B virus [27]
  Activity: Active
[28]
  AUC(0-inf): 3450 ng·h/mL
[29]
  half-life: > 4.82 h
[30]
  remaining at 1 h: 87.6%
[31]
  AUC(0-t) at 24 h: 1180 ng·h/mL
[32]
  MRT last at 24 h: 4.35 h
[33]
  CLint scaled: 102 mL/min/kg
[34]
  half-life: 2.87 h
[35]
  remaining at 1 h: 3.2%

## O=C(Nc1cc(F)c(F)c(F)c1)c1cc(NC(=S)NC2CCCC2)c(F)cc1C1CC1
[1]
  selectivity ratio: 179
Hepatitis B virus [2]
  EC50: 0.026 µM
[3]
  CC50 at 72 h: 4.66 µM

## CC(C)NC(=S)Nc1cc(C(=O)Nc2cc(F)c(F)c(F)c2)c(C2CC2)cc1F
[1]
  selectivity ratio: 510
Hepatitis B virus [2]
  EC50: 0.033 µM
[3]
  CC50 at 72 h: 16.8 µM

## O=C(O)Cc1ccccc1Nc1c(Cl)cccc1Cl [DICLOFENAC]
[6]
  microsomal CLint: 211 µL/min/mg
[9]
  half-life: 0.11 h
[33]
  CLint scaled: 190 mL/min/kg

## O=C(Nc1cc(C(=O)Nc2cc(F)c(F)c(F)c2)c(C2CC2)cc1F)c1cccs1
[1]
  selectivity ratio: 41.8
Hepatitis B virus [2]
  EC50: 0.5 µM
[3]
  CC50 at 72 h: 20.9 µM

## O=C(Nc1cc(F)c(F)c(F)c1)c1cc(S(=O)(=O)NC2CCC(O)CC2)c(F)cc1-c1ccccc1 (stereo unspecified)
[1]
  selectivity ratio: < 12.4
Hepatitis B virus [2]
  EC50: > 4 µM
[3]
  CC50 at 72 h: 49.7 µM

## CCNC(=S)Nc1cc(C(=O)Nc2cc(F)c(F)c(F)c2)c(C2CC2)cc1F
[1]
  selectivity ratio: 233
Hepatitis B virus [2]
  EC50: 0.091 µM
[3]
  CC50 at 72 h: 21.2 µM

## O=C(Nc1cc(F)c(F)c(F)c1)c1cc(S(=O)(=O)NC2CCCC2)c(F)cc1C1CC1
[1]
  selectivity ratio: 52.3
Hepatitis B virus [2]
  EC50: 0.65 µM
[3]
  CC50 at 72 h: 34 µM

## CC(C)NC(=O)/C=C/c1c(S(=O)(=O)N2CCOCC2)ccc(F)c1C(=O)Nc1cc(F)c(F)c(F)c1
[1]
  selectivity ratio: < 6.04
Hepatitis B virus [2]
  EC50: > 4 µM
[3]
  CC50 at 72 h: 24.2 µM

## O=C(Nc1cc(F)c(F)c(F)c1)c1cc(S(=O)(=O)NC2CCCC2)c(F)cc1-c1cccs1
[1]
  selectivity ratio: 3.75
Hepatitis B virus [2]
  EC50: 4 µM
[3]
  CC50 at 72 h: 15 µM

## COC(=O)/C=C/c1c(S(=O)(=O)N2CCOCC2)ccc(F)c1C(=O)Nc1cc(F)c(F)c(F)c1
Hepatitis B virus [2]
  EC50: > 4 µM
[3]
  CC50 at 72 h: > 100 µM

## O=C(Nc1cc(F)c(F)c(F)c1)c1cc(NC(=S)NC2CC2)c(F)cc1C1CC1
[1]
  selectivity ratio: > 500
Hepatitis B virus [2]
  EC50: 0.2 µM
[3]
  CC50 at 72 h: > 100 µM

## O=C(Nc1cc(F)c(F)c(F)c1)c1cc(S(=O)(=O)NC2CCCC2)c(F)cc1-c1ccsc1
[1]
  selectivity ratio: < 0.29
Hepatitis B virus [2]
  EC50: > 4 µM
[3]
  CC50 at 72 h: 1.16 µM

## O=C(Nc1cc(F)c(F)c(F)c1)c1cc(NC(=O)C2CCCC2)c(F)cc1C1CC1
[1]
  selectivity ratio: > 208
Hepatitis B virus [2]
  EC50: 0.48 µM
[3]
  CC50 at 72 h: > 100 µM

## N#Cc1ccc(C(=O)Nc2cc(C(=O)Nc3cc(F)c(F)c(F)c3)c(C3CC3)cc2F)cc1
[1]
  selectivity ratio: 10.7
Hepatitis B virus [2]
  EC50: 0.42 µM
[3]
  CC50 at 72 h: 4.5 µM

## O=C(Nc1cc(F)c(F)c(F)c1)c1ccc(F)c(S(=O)(=O)N2CCC(O)CC2)c1
[1]
  selectivity ratio: 47.6

## O=C(Nc1cc(F)c(F)c(F)c1)c1cc(S(=O)(=O)NC2CCC(O)CC2)c(F)cc1-c1ccc2c(c1)OCO2 (stereo unspecified)
[1]
  selectivity ratio: < 20.6
Hepatitis B virus [2]
  EC50: > 4 µM
[3]
  CC50 at 72 h: 82.4 µM

## CC(NC(=S)Nc1cc(C(=O)Nc2cc(F)c(F)c(F)c2)c(C2CC2)cc1F)C(F)(F)F (stereo unspecified)
[1]
  selectivity ratio: 133
Hepatitis B virus [2]
  EC50: 0.029 µM
[3]
  CC50 at 72 h: 3.86 µM

## CCOC(=O)C1=C(CN2CCOCC2)NC(c2nccs2)=N[C@H]1c1ccc(F)cc1Br
Hepatitis B virus [2]
  EC50: 0.022 µM

## C[C@]12CC[C@H]3[C@@H](CCC4=CC(=O)CC[C@@]43C)[C@@H]1CC[C@@H]2O [TESTOSTERONE]
[6]
  microsomal CLint: 74.5 µL/min/mg
[33]
  CLint scaled: 67 mL/min/kg

## CC(C)[N+](C)(CCOC(=O)C1c2ccccc2Oc2ccccc21)C(C)C.[Br-] [PROPANTHELINE BROMIDE]
[4]
  remaining at 10 min: 70.1%
[24]
  remaining at 0.5 h: 18.9%
[29]
  half-life: 0.162 h
[30]
  remaining at 1 h: 1.5%

## O=C(Nc1cc(F)c(F)c(F)c1)c1cc(NC(=O)C2CC2)c(F)cc1C1CC1
[1]
  selectivity ratio: 59.6
Hepatitis B virus [2]
  EC50: 1.48 µM
[3]
  CC50 at 72 h: 88.2 µM

## O=C(Nc1cc(F)c(F)c(F)c1)c1cc(S(=O)(=O)NC2CCC(O)CC2)c(F)cc1-c1ccsc1 (stereo unspecified)
[1]
  selectivity ratio: < 20.6
Hepatitis B virus [2]
  EC50: > 4 µM
[3]
  CC50 at 72 h: 82.4 µM

## O=C(/C=C/c1c(S(=O)(=O)N2CCOCC2)ccc(F)c1C(=O)Nc1cc(F)c(F)c(F)c1)OCCO
Hepatitis B virus [2]
  EC50: > 4 µM
[3]
  CC50 at 72 h: > 100 µM
